Holding throughout (assay type): in vivo
The subject of assay [1] is cows. Nature of the assay: Changes in blood non-esterified fatty acid (NEFA) concentrations in transition cows. How it is done:
(§1) To determine negative energy balance, serum concentrations of NEFAs or ketone bodies, or levels of triglycerides in liver tissues, are measured. Higher than ‘normal’ levels of NEFA's and/or triglycerides and/or ketone bodies are indicators of negative energy balance. Levels considered ‘higher than normal’ or ‘excessive’ are: • NEFA's >800 μmol/L in serum. • Triglycerides >10% w/w in liver tissue. • Ketone bodies […] in serum. Determination of Changes in Blood Non-Esterified Fatty Acid (NEFA) Concentrations and Liver Triglycerides Levels:
(§2) Compounds were administered once or several times in the transition period at dose levels predicted to be effective by comparing results of in-vitro receptor affinity tests in laboratory species and pharmacokinetic evaluations in cattle. NEFA levels were determined via standard laboratory methods, for example, using the commercial WAKO NEFA kit (Wako Chemical Co., USA, Dallas, Tex., 994-75409), and liver triglyceride content was determined using the method as described in the literature (J. K. Drackley, J. J. Veenhuizen, M. J. Richard and J. W. Young, J Dairy Sci, 1991, 74, 4254)). […]
(§3) As soon as possible post-calving (˜30 minutes) the cow was transferred to the freestall barn for the next scheduled milking (6:00 hrs and 19:00 hrs). […] Pre and post-calving NEFA samples were analyzed using the WAKO NEFA-C test kit (#994-75409). […]

Assay [2] has as its system cows. Kind of assay: Liver triglyceride levels in transition cows (post-calving liver biopsies). The note with it: all treatment regimens (0.5 mg/kg); Days 5, 10 and 14 postcalving. The procedure: as §1, §2, §3
Assay [3] has as its system Holstein cows. Kind of assay: Milk yield and milk quality study in pregnant, non-lactating Holstein cows. The settings on record: approximately 0.5 mg/kg subcutaneous on day of calving and day five post-calving. The procedure:
Machines to assay for milk protein, fat, or lactose content are commercially available (MilkoScan™ 50, MilkoScan™ 4000, MilkoScan™ FT 6000 available from Foss Group). Machines to assay for somatic cell content are also commercially available (Fossomatic™ FC, Fossomatic™ Minor available from Foss Group).
One hundred twenty four pregnant, non-lactating Holstein cows were allocated to two treatment groups (placebo and COMPOUND at approximately 0.5 mg/kg). Animals were allowed to calve, treated by subcutaneous injection on the day of calving and on day five post-calving. Disease events and daily milk production were recorded for the following sixty days. The average daily milk yield in the treated cows was increased from 41.8 to 43.2 kg/day (p=0.052). There was also a significant beneficial effect on milk quality (increased protein and lactose yield, decreased somatic cell count). Results are shown in the FIG. 3 and FIG. 4, where COMPOUND represents Compound Z.

Where [4] appears, read: versus placebo, significant beneficial effect.

The structures appear in SMILES notation.

Take `CC(C)(Oc1cccc([C@@H]2CCCN(C(=O)OCc3ccc(C(F)(F)F)cc3)C2)c1)C(=O)O` [Compound Z, (3S)-3-[3-(1-Carboxy-1-methyl-ethoxy)-phenyl]-piperidine-1-carboxylic acid 4-trifluoromethyl-benzyl ester]: the “serum NEFA levels as compared to controls” value in assay [1] (all animals treated with Compound Z (T02, T03, T04; 0.5 mg/kg), from Day 1 (after calving) until Day 6 of the study) is recorded as “significantly lower”. In assay [1] (treatment group T03 (0.5 mg/kg at calving and post partum eod 4 doses), all timepoints), the “serum NEFA levels compared to controls” value was “significantly lower”. In addition, in assay [2], the “liver triglyceride levels compared to placebo” value was “significantly lowered”. In assay [3] (sixty days recording, placebo 41.8, p=0.052), the “average daily milk yield” value worked out at 43.2 kg/day. Moreover, in assay [3] (setting [4]), the “milk quality: lactose yield” value was “increased”, the “milk quality: protein yield” value is reported as “increased” and the “milk quality: somatic cell count” value was “decreased”.

The record behind these values is patent publication US20070281935A1, “Use” (PFIZER INC., priority 2004, published 2007).
